This is an account of results in patent publication US20100105602A1, “TREATMENT OF INT[…] INFECTIONS” (Novozymes A/S, priority 2008, published 2010).

For data set [1], the system named is Staphylococcus aureus ATCC25923 (MSSA) in THP-1 macrophages. Description: In vitro intracellular activity in infected THP-1 macrophages, S. aureus ATCC25923. As to conditions: for Emax (95% CI): decrease in log CFU after 24 hours compared to original inoculum. It counts as cell-based. On the procedure:
(§1) For studies of Plectasin, two strains of S. aureus were applied: ATCC25923 (MSSA) and E33235 (MSSA, axil, clinical isolate from Statens Serum Institute, Denmark).
(§2) For studies of Defensin2114, […] of S. aureus were used: ATCC25923 (MSSA), MRSA (clinical septicaemia isolate, Statens Serum Institute, ref. no. 1-15479) and VRSA2 (Pennsylvania HIP 11983).
(§3) Overnight culture of bacteria was opsonized for 45 min with human serum (AB positive, Lonza, USA). Afterwards the bacteria were tittered using a spectrophotometer (CECIL 2040) and THP-1 macrophages were counted and then infected with 4 bacteria/cell. THP-1 cells were cultured in RPMI 1640 medium supplemented with fetal calf serum.
(§4) The bacteria were incubated with cells for 1 hour at 37° C., CO2 5%, to allow phagocytosis.
(§5) After 1 hour of incubation the infected cells were incubated 45 min with Gentamicin (50 micrograms/mL) to eradicate remaining non-phagocytosed bacteria. To remove Gentamicin after incubation cells were washed 3× with PBS. After the third wash, cells were re-suspended in RPMI 1640 medium (+10% fetal calf serum) and Plectasin or Defensin2114 was added at desired concentrations (0-128×MIC). One sample was incubated with Gentamicin at 1×MIC for control of intracellular growth. In studies of Defensin2114 the activity was compared to that of vancomycin and daptomycin.
(§6) Cells were incubated in 6-well plates for 24 hours at 37° C., CO2 5%.
(§7) After incubation cells were washed in PBS and subsequently re-suspended in sterile water to release intracellular bacteria.
(§8) Samples were diluted regarding to the expected amount of CFU and spread on TSA plates and incubated at 35° C. overnight. After 24 hours incubation the CFU were counted.
(§9) The samples may be stored at −20° C. for up to one week. Samples were sonicated and proteins titered as described by Lowry et al. hereby obtaining results as CFU/mg protein. All samples were tested in triplicates.
(§10) In vitro intracellular dose-response studies: For analysis of dose-effect relationships, the Hill-equation (slope=1) was employed to calculate the maximal relative efficacy, Emax, static concentration (Cstatic) and goodness-of-fit. These parameters were determined using non-linear regression.

In data set [2] the test system is Staphylococcus aureus MRSA (1-15479) in THP-1 macrophages. Description: In vitro intracellular activity in infected THP-1 macrophages, MRSA (1-15479). It counts as cell-based. The settings on record: for Cstatic / Emax (95% CI): MRSA (1-15479), THP-1 macrophages, 24 hours. On the procedure: as §2, §3, §4, §5, §6, §7, §8, §9, §10
Data set [3] concerns Staphylococcus aureus VRSA2 (Pennsylvania HIP 11983) in THP-1 macrophages. Description: In vitro intracellular activity in infected THP-1 macrophages, VRSA2. It counts as cell-based. As to conditions: for Cstatic / Emax (95% CI): VRSA2, THP-1 macrophages, 24 hours. On the procedure:
as §2, §3, §4, §5, §6, §7, §8, §9, §10

Data set [4] concerns Staphylococcus aureus E33235 (MSSA) in THP-1 macrophages. Description: In vitro intracellular activity in infected THP-1 macrophages, S. aureus E33235. As to conditions: S. aureus E33235, THP-1 macrophages, 24 hours. It counts as cell-based. On the procedure: as §1, §3, §4
After 1 hour of incubation the infected cells were incubated 45 min with Gentamicin (50 micrograms/mL) to eradicate remaining non-phagocytosed bacteria. To remove Gentamicin after incubation cells were washed 3× with PBS. […]
Samples were diluted regarding to the expected amount of CFU and spread on TSA plates and incubated at 35° C. overnight. After 24 hours incubation the CFU were counted. […]
as §10

The nature of data set [5]: Kinetics study, serum, and PK/PD parameters of dosing regimens. The data set is classed as in vivo, mice. Also noted: AUC(free) / Peak / Cpeak: unit not given here. The settings on record: for AUC(free): free serum concentrations. On the procedure: Animals were dosed from 4.25-34 mg/kg
The serum was separated and stored at −20° C. until analysis by LCMSMS using internal and external standards. Serum binding was calculated to 90%.
Pharmacokinetic parameters were determined through intrapolation from free serum concentrations using GraphPad Prism.

The subject of data set [6] is Staphylococcus aureus E33235. Description: Mouse peritonitis model, intra- and extracellular effect. It counts as in vivo, mice. On the procedure:
This Example presents an in vivo study of the efficacy of Plectasin against intracellular Staphylococcus aureus E33235 in an animal model of infection (peritonitis), including assessment of both intra- and extracellular effect. Staphylococcus aureus E33235 is a clinically isolated strain obtainable from Statens Serum Institut, Denmark.
Staphylococcus aureus E33235 was spread on 5% blood plates and incubated overnight at 37° C. at ambient air. A 10% w/v Mucin solution was prepared in NaCl. The solution was sterilized and pH adjusted to pH 7.0.
Colonies of Staphylococcus aureus were suspended in saline to approx. 10^8 CFU/mL (OD=0.13). A 1:1 dilution with the 10% Mucin stock solution was prepared making a solution of 5% Mucin and 5×10^7 CFU/mL.
A solution of 50 mg/mL lysostaphin was prepared in HBSS (Hanks Balanced Salt Solution).
Two hours before treatment (T=0) the mice were inoculated i.p. with 0.5 mL Staphylococcus aureus suspension (with 5% Mucin).
The injected dose volume was 0.6 or 0.3 mL/animal. The first dose was injected two hours after inoculation (T=2).
At T=2 and T=6 hours control animals were sacrificed and peritoneal wash performed. 24 hours after first treatment, the remaining treated animals were sacrificed. Peritoneal wash was performed after sacrifice of animals by cervical dislocation.
Negative control (cell free): Inoculum at 10^8 CFU/mL of S. aureus E 33235 (OD=0.13) in saline was prepared just before the last separation assay of the day. The negative control was handled exactly as the test samples. Microscopy and cell-count of the negative control are not shown. Each sample was handled as described in Table 6.
CFU counts from peritoneal fluid from treated animals were compared to PK/PD parameters to assess the correlation between intra- and extracellular effect of Plectasin to Cpeak, T>MIC and AUC/MIC.
Correlation (Hills) between the most predictive PK/PD-parameter. Effect was determined as the decrease in CFU in the peritoneal fluid 24 hours after the first treatment. Parameters were estimated by multiple regression analysis.

Setting [7] is: S. aureus ATCC25923, THP-1 macrophages, 24 hours, no apparent growth.
Setting [8] is: S. aureus ATCC25923, THP-1 macrophages.
[9] abbreviates: S. aureus ATCC25923, THP-1 macrophages, 24 hours, Table 1.
The mark [10] stands for this setting: b.i.d. treatment with 34 mg/kg, peritoneal fluid, 24 hours after first treatment.

As to `CN[C@H](CC(C)C)C(=O)N[C@H]1C(=O)N[C@@H](CC(N)=O)C(=O)N[C@H]2C(=O)N[C@H]3C(=O)N[C@H](C(=O)N[C@H](C(=O)O)c4cc(O)cc(O)c4-c4cc3ccc4O)[C@H](O)c3ccc(c(Cl)c3)Oc3cc2cc(c3O[C@@H]2O[C@H](CO)[C@@H](O)[C@H](O)[C@H]2O[C@H]2C[C@](C)(N)[C@H](O)[C@H](C)O2)Oc2ccc(cc2Cl)[C@H]1O` [Vancomycin, reference compound], the Cstatic in data set [1] (setting [7]) came to 2.9 ×MIC; in data set [2], 6.2 ×MIC. The “Emax (95% CI)” value in data set [1] (setting [8]) is reported as −0.64 log CFU; in data set [2] it was −0.66 log CFU.
Consider `CCCCCCCCCC(=O)N[C@@H](Cc1c[nH]c2ccccc12)C(=O)N[C@H](CC(N)=O)C(=O)N[C@@H](CC(=O)O)C(=O)N[C@@H]1C(=O)NCC(=O)N[C@@H](CCCN)C(=O)N[C@@H](CC(=O)O)C(=O)N[C@H](C)C(=O)N[C@@H](CC(=O)O)C(=O)NCC(=O)N[C@H](CO)C(=O)N[C@@H]([C@H](C)CC(=O)O)C(=O)N[C@@H](CC(=O)c2ccccc2N)C(=O)O[C@@H]1C` [Daptomycin, reference compound], for which the Cstatic in data set [3] is 1.3 ×MIC; in data set [1] (setting [7]), 0.6 ×MIC; in data set [2], 1.8 ×MIC. Further, the “Emax (95% CI)” value in data set [3] is recorded as −0.29 log CFU; in data set [1] (setting [8]) it was −1.00 log CFU; in data set [2], −0.85 log CFU.
On to “Defensin2114: defensin polypeptide shown as SEQ ID NO: 1; synthetic defensin derived from Plectasin (GFGCNGPWNEDDLRCHNHCKSIKGYKGGYCAKGGFVCKCY)”, for which the “Emax comparison, one-way ANOVA (Tukeys test)” value was “No difference in Emax value between Defensin2114 and daptomycin” in data set [3] (VRSA); “significantly lower Emax value than both daptomycin and vancomycin” in data set [1] (ATCC25923); “significantly lower Emax value than vancomycin” in data set [2] (MRSA, P<0.01). Moreover, the Cstatic amounted to 2.3 ×MIC in data set [3], 0.8 ×MIC in data set [1] (setting [7]) and 1.1 ×MIC in data set [2]. Further, the figures for the “Emax (95% CI)” value in data set [3], in data set [1] (setting [8]) and in data set [2] were −0.22 log CFU, −1.51 log CFU and −0.93 log CFU, respectively.
Turning to `CC[C@H](C)[C@@H]1NC(=O)[C@H](CO)NC(=O)[C@H](CCCCN)NC(=O)[C@@H]2CSSC[C@@H](C(=O)N[C@@H](Cc3ccc(O)cc3)C(=O)O)NC(=O)[C@H](CCCCN)NC(=O)[C@@H]3CSSC[C@H](NC(=O)[C@H](CCC(N)=O)NC(=O)[C@H](CCSC)NC(=O)[C@H](CC(=O)O)NC(=O)[C@H](CC(=O)O)NC(=O)[C@H](CCC(=O)O)NC(=O)[C@H](CC(=O)O)NC(=O)[C@H](Cc4c[nH]c5ccccc45)NC(=O)[C@@H]4CCCN4C(=O)CNC(=O)[C@H](CC(N)=O)NC(=O)[C@@H](NC(=O)CNC(=O)[C@H](Cc4ccccc4)NC(=O)CN)CSSC[C@H](NC(=O)[C@H](Cc4ccc(O)cc4)NC(=O)CNC(=O)CNC(=O)[C@H](CCCCN)NC(=O)[C@H](Cc4ccc(O)cc4)NC(=O)CNC(=O)[C@H](CCCCN)NC1=O)C(=O)N[C@@H](C)C(=O)N[C@@H](CCCCN)C(=O)NCC(=O)NCC(=O)N[C@@H](Cc1ccccc1)C(=O)N[C@@H](C(C)C)C(=O)N3)C(=O)N[C@@H](Cc1c[nH]cn1)C(=O)N[C@@H](CC(N)=O)C(=O)N[C@@H](Cc1c[nH]cn1)C(=O)N2` [Plectasin], the Cstatic in data set [1] (setting [9]) and in data set [4] was 0.6 ×MIC throughout. Besides, the “Emax (CI)” value is listed as −1.35 log CFU in data set [1] (setting [9]) and −0.97 log CFU in data set [4]. Further, the Peak in data set [5] (dose 4.25 mg/kg) is reported as 1.61; in data set [5] (dose 8.5 mg/kg) it was 2.32; in data set [5] (dose 17 mg/kg), 4.95; in data set [5] (dose 34 mg/kg), 5.99. For the same compound, the “AUC(free)” value in data set [5] (dose 4.25 mg/kg) was determined as 1.901; in data set [5] (dose 8.5 mg/kg), 3.955; in data set [5] (dose 17 mg/kg) it was 8; in data set [5] (dose 34 mg/kg) it was 13.25. Also, the fraction unbound in data set [5] (mouse, serum, LCMSMS, read-out: Serum binding (converted)) was 0.1. In addition, the Cpeak in data set [5] (regimen 1: 34 mg/kg, 1 dose in 24 hours) is 5.99; in data set [5] (regimen 2: 17 mg/kg, 1 dose in 24 hours), 4.95; in data set [5] (regimen 3: 8.5 mg/kg, 1 dose in 24 hours), 2.32; in data set [5] (regimen 4: 4.25 mg/kg, 1 dose in 24 hours), 1.61; in data set [5] (regimen 5: 17 mg/kg, 2 doses in 24 hours) it was 5.99; in data set [5] (regimen 6: 8.5 mg/kg, 2 doses in 24 hours), 2.32. The Cpeak in data set [5] (regimen 7: 34 mg/kg, 3 doses in 24 hours) stood at 5.99; in data set [5] (regimen 8: 4.25 mg/kg, 3 doses in 24 hours) it was 1.61; in data set [5] (regimen 9: 8.5 mg/kg, 4 doses in 24 hours), 2.32; in data set [5] (regimen 10: 8.5 mg/kg, 6 doses in 24 hours) it was 2.32. Also, the “Max Δ log Decrease in CFU Extracellularly” value in data set [6] (setting [10]) is −2.55 (SD: 0.150) Δ log. For the same compound, the “Max Δ log Decrease in CFU Intracellularly” value in data set [6] (setting [10]) is −1.25 (SD: 0.058) Δ log. In addition, the “effect in the mouse peritonitis model” value in data set [6] (s.c. treatment, S. aureus E33235 i.p.) is “showed both intra- and extracellular effect”.
